According to ChEMBL document CHEMBL1143921, “Structure-based design and synthesis of benzimidazole derivatives as dipeptidyl peptidase IV inhibitors” (Bioorg Med Chem Lett, 2008):

How the values were obtained:
in vitro [1] = conditions: human, liver microsomes
[2] = Half life in rat at 0.8 mg/kg, iv; assay type: ADME, organism-based; parameters: dose 0.8 mg/kg, route intravenous; conditions: in vivo
[3] = Bioavailability in rat at 8 mg/kg, po; assay type: ADME, organism-based; conditions: in vivo
[4] = Half life in rat at 8 mg/kg, po; assay type: ADME, organism-based; parameters: dose 8 mg/kg, route oral; conditions: in vivo
in vitro [5] = conditions: rat, liver microsomes
[6] = Volume of distribution at steady state in rat at 0.8 mg/kg, iv or 8 mg/kg, po; assay type: ADME, organism-based; conditions: in vivo, read-out: Vdss
[7] = AUC in rat at 8 mg/kg, po; assay type: ADME, organism-based; parameters: dose 8 mg/kg, route oral; conditions: plasma
[8] = Bioavailability in rat at 8.4 mg/kg, po; assay type: ADME, organism-based; conditions: in vivo
[9] = AUC in rat at 8.4 mg/kg, po; assay type: ADME, organism-based; parameters: dose 8.4 mg/kg, route oral; conditions: plasma
[10] = Volume of distribution at steady state in rat at 0.7 mg/kg, iv or 8.4 mg/kg, po; assay type: ADME, organism-based; conditions: in vivo, read-out: Vdss
[11] = Half life in rat at 8.4 mg/kg, po; assay type: ADME, organism-based; parameters: dose 8.4 mg/kg, route oral; conditions: in vivo
[12] = Half life in rat at 0.7 mg/kg, iv; assay type: ADME, organism-based; parameters: dose 0.7 mg/kg, route intravenous; conditions: in vivo
[13] = Half life in rat at 11.6 mg/kg, po; assay type: ADME, organism-based; parameters: dose 11.6 mg/kg, route oral; conditions: in vivo
[14] = Bioavailability in rat at 11.6 mg/kg, po; assay type: ADME, organism-based; conditions: in vivo
[15] = Half life in rat at 1.0 mg/kg, iv; assay type: ADME, organism-based; parameters: dose 1 mg/kg, route intravenous; conditions: in vivo
[16] = Volume of distribution at steady state in rat at 1.0 mg/kg, iv or 11.6 mg/kg, po; assay type: ADME, organism-based; conditions: in vivo, read-out: Vdss
[17] = AUC in rat at 11.6 mg/kg, po; assay type: ADME, organism-based; parameters: dose 11.6 mg/kg, route oral; conditions: plasma

half-life (in vitro [1]) | half-life (in vitro [5]) | Structure (SMILES) | further results
> 3.33 h | 0.767 h | Cn1cnc2ccc(-c3ccc(Cl)cc3Cl)c(CN)c21 | half-life [2]: 7 h; bioavailability [3]: 100%; half-life [4]: 4.4 h; Vd [6]: 4.81 L/kg; AUC [7]: 11500 ng·h/mL
1.55 h | 0.767 h | Cn1cnc2ccc(-c3ccccc3)c(CN)c21 | –
1.67 h | 0.65 h | Cn1cnc2ccc(-c3ccccc3CO)c(CN)c21 | –
0.483 h | 0.217 h | Cn1nnc2ccc(-c3ccccc3Cl)c(CN)c21 | –
3.05 h | 0.467 h | Cc1ccccc1-c1ccc2ncn(C)c2c1CN | –
> 3.33 h | 0.7 h | CCn1cnc2ccc(-c3ccc(Cl)cc3Cl)c(CN)c21 | –
> 3.33 h | 0.117 h | Cc1nc2ccc(-c3ccccc3Cl)c(CN)c2n1C | –
2.93 h | 0.4 h | Cn1cnc2cc(Br)c(-c3ccccc3Cl)c(CN)c21 | –
> 3.33 h | 1.27 h | Cn1c(=O)[nH]c2ccc(-c3ccccc3Cl)c(CN)c21 | bioavailability [8]: 49%; AUC [9]: 9000 ng·h/mL; Vd [10]: 1.14 L/kg; half-life [11]: 4 h; half-life [12]: 4.2 h
1.6 h | 0.433 h | Cn1c(-c2cccnc2)nc2ccc(-c3ccccc3Cl)c(CN)c21 | –
> 3.33 h | 0.183 h | COCc1nc2ccc(-c3ccccc3Cl)c(CN)c2n1C | –
> 3.33 h | 0.0333 h | CCc1nc2ccc(-c3ccccc3Cl)c(CN)c2n1C | –
> 3.33 h | 0.95 h | Cn1cnc2ccc(-c3ccccc3Cl)c(CN)c21 | –
> 3.33 h | 0.633 h | Cn1cnc2cc(C#N)c(-c3ccccc3Cl)c(CN)c21 | half-life [13]: 2.9 h; bioavailability [14]: 122%; half-life [15]: 3.8 h; Vd [16]: 1.07 L/kg; AUC [17]: 22100 ng·h/mL
> 3.33 h | > 3.33 h | Cn1cnc2cc(C(N)=O)c(-c3ccccc3Cl)c(CN)c21 | –
> 3.33 h | 0.533 h | NCc1c(-c2ccccc2Cl)ccc2ncn(CCO)c12 | –
0.133 h | 0.0667 h | NCc1c(-c2ccccc2Cl)ccc2ncn(Cc3ccccc3)c12 | –
2.15 h | 0.767 h | NCc1c(-c2ccc(Cl)cc2Cl)ccc2nc[nH]c12 | –
